pIC50: −log10 of the molar value.
Assays:
RBL-2H3 cells = assay: Inhibitory activity against allergic reaction using RBL-2H3 cells (PGD2 production); type: cell-based, rat; conditions: Rattus norvegicus, RBL-2H3, RBL-2H3 cells, anti-DNP IgE / DNP-BSA; read-out: PGD2 production inhibitory concentration (IC50; (nM))
Protocol: Rat basophilic leukemia cells, RBL-2H3, were suspended in MEM medium containing 10% FBS, and then the cells were inoculated in a culture plate, and cultured in a CO2 incubator (Sanyo Electric Biomedical Co., Ltd.) at 37° C. for 12 hours. After a culture supernatant was removed and the cells were washed, an anti-DNP-mouse IgE (Alpha Diagnostic Inc.) solution was added thereto, and the cells were cultured in the CO2 incubator for 1 hour. After a culture supernatant was removed and the cells were washed, an MEM medium was added thereto.
Further, a DNP-BSA (LSL, Inc.) solution was added thereto and the cells were cultured in the CO2 incubator for 15 minutes. A culture supernatant was collected and reacted, with PGD2-MOX EIA kit (Cayman Chemical Inc.) on the basis of the protocol attached thereto, and absorbance was measured by SUNRISE RAINBOW THERMO (TECAM Inc.).

TNP-IgE mice = assay: Mouse antigen-induced dermatitis model; type: in vivo; conditions: for Ear swelling control ratio (%): 30 minutes before allergen, 2 hours after antigen; for ear swellings induced by the allergen application: from low dose, compared with Reference compound 1
Description: Type I allergy models accompanied by a skin symptom (a dermatitis model) were produced, with TNP-IgE mice (CLEA Japan, Inc.). The mice are genetically modified BALB/c mice that constantly produce an IgE specific to hapten TNP (trinitrophenol) which is widely used as an allergen (antigen). It is possible to induce an allergic reaction in the mice, only by administering an allergen, without carrying out an immunization. […] An average value of thickening values of both ears was obtained as a value of an individual (provided that a previous value before the allergen application was 0 mm).
Ear swelling control ratio (%) was calculated by the following formula. Ear swelling control ratio (%)=(1−(Average value of ear thickening of compound administered group)/(Average value of ear thickening of vehicle administered group))×100

[1] = target: T1, recombinant human BTK protein (Homo sapiens, UniProt Q06187); assay: Measurement of BTK inhibitory activity (in vitro); type: biochemical; conditions: ATP 45 μM, 40 minutes at 25° C.
T1 construct: purchased Carna Biosciences, Inc
Description: Regarding the setting of the conditions for a method for measuring the inhibitory activity of a compound against BTK kinase activity in vitro, it is described in the consumable reagent supplies price list for LabChip (registered trademark) series of PerkinElmer, Inc. that FL-PEPTIDE 2 corresponds to a substrate peptide for the measurement of BTK kinase activity. Therefore, FL-PEPTIDE 2 was used as a substrate. The purified recombinant human BTK protein used in the test was purchased from Carna Biosciences, Inc.
Regarding the measurement of the inhibitory activity of the compounds, firstly, the compounds of the present invention were diluted stepwise with DMSO. Subsequently, BTK protein, a substrate peptide (final concentration was 1 μM), magnesium chloride (final concentration was 10 mM), ATP (final concentration was 45 μM), and a DMSO solution of the compounds of the present invention (final concentration of DMSO was 5%) were added to a buffer solution for kinase reaction (20 mM HEPES (pH 7.5), 2 mM dithiotheitol, 0.01% Triton X-100), and after the solution was incubated for 40 minutes at 25° C., a kinase reaction was carried out. The reaction was terminated by adding EDTA thereto so as to obtain a final concentration of 30 mM. Finally, a substrate peptide that was not phosphorylated (S) and a phosphorylated peptide (P) were separated and detected by microchannel capillary electrophoresis with a LabChip EZ Reader II (PerkinElmer, Inc.).

A431 cells/TMD8 cells = assay: Proliferation inhibitory activity against cell lines expressing BTK and EGFR, comparison of selectivity; type: cell-based, human; conditions: cells cultured three days with compound, CELLTITER GLO
Description: TMD8 cells, which are of a diffuse large B-cell lymphoma cell line expressing BTK, were suspended in RPMI1640 medium (Life Technologies Corp.) containing 10% fetal bovine serum. A431 cells, which are of an EGFR-overexpressing, highly activated human epidermoid carcinoma cell line, were suspended in DMEM, high glucose medium (Life Technologies Corp.) containing 10% fetal bovine serum. The cell suspensions were inoculated into each well of 384-well flat-bottomed microplates, and the cells were cultured for one day at 37° C. in an incubator containing 5% carbon dioxide gas. […] A DMSO solution of the test compounds was diluted with the medium used in the suspension of the each cell, and this was added to each of the wells of the cell culture plates such that the final concentration of DMSO would be 0.2%. The cells were further cultured for three days at 37° C. in an incubator containing 5% carbon dioxide gas. […] Proliferation inhibition ratio (%)=(C−T)/(C−C0)×100
T: Luminescence intensity of a well in which the test compound was added
C: Luminescence intensity of a well in which the test compound was not added
C0: Luminescence intensity of a well measured before the addition of the test compound
When a comparison is made between the cell proliferation inhibitory activity against A431 cells that depends on the EGFR proliferation signaling and the cell proliferation inhibitory activity against TMD8 cells that depends on the BTK proliferation signaling, the influence of the respective kinases at a cellular level is able to be evaluated. That is, when the “A431 cell proliferation inhibition ratio/TMD8 cell proliferation inhibition ratio” is calculated, it is contemplated that as the value of the ratio is larger, the selectivity to BTK over EGFR in the cells is higher.

EGFR/BTK = assay: BTK inhibition selectivity compared with EGFR kinase inhibitory activity (in vitro); type: biochemical, human; conditions: ratio of IC50 values
Protocol: Therefore, a biotinated peptide (biotin-[…]) was produced by referring to the amino acid sequence of the peptide. The purified recombinant human EGFR protein used in the test was purchased from Carna Biosciences, Inc.
Regarding the measurement of the inhibitory activity of the compounds, firstly, the compounds of the present invention were diluted stepwise with DMSO. […] The reaction was terminated by adding EDTA thereto so as to obtain a final concentration of 24 mM. Subsequently, a detection liquid containing Eu-labeled anti-phosphorylated tyrosine antibody PT66 (PerkinElmer, Inc.) and SureLight APC-SA (PerkinElmer, Inc.) was added thereto, and the system was left to stand for 2 hours or longer at room temperature.

[2] = target: T2, phosphorylated BTK protein in Ramos cells (Homo sapiens, UniProt Q06187); assay: Inhibitory activity against B-cell activation using Ramos cells (BTK phosphorylation); type: cell-based; conditions: anti-human IgM stimulation, pY223 Western blotting, read-out: Phosphorylated BTK inhibitory concentration (IC50, (nM))
T2 construct: endogenous in cells; host or cells: Ramos cells
Protocol: The human B-cell lymphoma-derived cell line, Ramos cells were suspended in RPMI1640 medium, and then the cells were inoculated in a culture plate at a concentration of 2.0×10^6 (cells/well). The cells were cultured in a CO2 incubator (Sanyo Electric Biomedical Co., Ltd.) at 37° C. for 12 hours. […] Then, 10 minutes of stimulation was provided with Goat F(ab′)2 anti-human IgM antibody-UNLB (southern biotech Corp.). Thereafter, the cells were harvested, and 50 μL of (a cell extract (NP-40; Invitrogen, Inc.) containing 1×protease inhibitor (Hoffmann-La Roche AG) and 1×phosphatase cocktail inhibitor (Sigma-Aldrich Co.)) was added to the cell pellets. The cell pellets were left to stand for 10 minutes on ice. The amount of protein in the collected cell extract was quantitatively analyzed by a DC protein assay (Bio-Rad Laboratories, Inc.), and 20 μg of proteins per lane was applied to a Criterion TGX™ (Bio-Rad Laboratories, Inc.). After electrophoresis was performed, Western blotting was performed with Trans-Blot™ Turbo™ (Bio-Rad Laboratories, Inc.). Thereafter, phosphorylated BTK protein and BTK protein were detected with LAS4000 (GE Healthcare, Inc.) with a BTK phosphor (pY223) antibody (EPITOMICS Inc.) and a BTK antibody (Abcam, plc.).

[3] = Influence on body weight of SD rat by repeated administration; type: in vivo; conditions: 750 mg/kg orally once a day, two weeks
Protocol: The rats were grouped as follows, with four animals in each group, by a random classification method such that the average body weights of the respective groups would be almost uniform (Day 1).
The body weight change (BWC) was used as an index indicating the systemic toxicity caused by the compound administration. The BWC was calculated by the following formula. BWC (%)=([(Rat body weight on 14 days after the administration)−(Rat body weight at the time of grouping)]/(Rat body weight at the time of grouping))×100
The relative body weight change ratios in the each compound-administered groups were calculated by the following formula when the BWC in the vehicle-administered group was set as 1, and the results are indicated in Table 25. Relative body weight change ratio (%)=(BWC in the compound-administered group)/BWC in the vehicle-administered group)×100

T1 sequence (Q06187 whole entry): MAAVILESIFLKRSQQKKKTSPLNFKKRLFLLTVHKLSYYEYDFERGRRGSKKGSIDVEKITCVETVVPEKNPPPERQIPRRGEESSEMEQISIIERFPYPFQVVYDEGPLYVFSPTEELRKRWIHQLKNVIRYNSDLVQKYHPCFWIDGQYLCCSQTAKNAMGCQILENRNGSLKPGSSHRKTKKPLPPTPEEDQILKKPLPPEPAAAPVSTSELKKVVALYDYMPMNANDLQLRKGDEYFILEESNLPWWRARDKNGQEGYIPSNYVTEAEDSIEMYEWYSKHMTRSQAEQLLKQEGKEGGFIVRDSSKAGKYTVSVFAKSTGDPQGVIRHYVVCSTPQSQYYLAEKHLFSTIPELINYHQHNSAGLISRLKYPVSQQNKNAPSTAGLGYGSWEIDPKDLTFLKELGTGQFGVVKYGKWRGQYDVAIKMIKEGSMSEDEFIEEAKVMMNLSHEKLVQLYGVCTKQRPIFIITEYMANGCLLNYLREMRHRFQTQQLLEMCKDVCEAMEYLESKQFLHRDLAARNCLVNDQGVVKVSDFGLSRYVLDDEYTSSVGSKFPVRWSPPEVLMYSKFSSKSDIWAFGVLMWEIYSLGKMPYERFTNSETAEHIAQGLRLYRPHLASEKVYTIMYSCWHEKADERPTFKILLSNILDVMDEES
T2 sequence (Q06187 whole entry): as above

pIC50 [1] | EGFR inhibitory activity IC50 value (nM)/BTK inhibitory activity IC50 value (nM) (EGFR/BTK) | Structure (SMILES) | Ear swelling control ratio (%) (TNP-IgE mice; 3 mg/kg oral) | other results
 |  | C=CC(=O)N1CCC[C@@H](n2nc(C(=O)Nc3nc4cc(Cl)ccc4o3)c3c(N)ncnc32)C1 [Example 1, (R)-1-(1-acryloylpiperidin-3-yl)-4-amino-N-(5-chlorobenzo[d]oxazol-2-yl)-1H-pyrazolo[3,4-d]pyrimidine-3-carboxamide] | 81% | IC50 (RBL-2H3 cells): 37 nM; Ear swelling control ratio (%) (TNP-IgE mice; 1 mg/kg oral): 66%; ear swellings induced by the allergen application (TNP-IgE mice): suppressed equivalently or strongly ear swellings
9.13 |  | C=CC(=O)N1CCC[C@@H](n2nc(C(=O)Nc3nc4cc(C#N)ccc4o3)c3c(N)ncnc32)C1 [Example 6, (R)-1-(1-acryloylpiperidin-3-yl)-4-amino-N-(5-cyanobenzo[d]oxazol-2-yl)-1H-pyrazolo[3,4-d]pyrimidine-3-carboxamide] | 45% | A431 cell proliferation inhibition ratio/TMD8 cell proliferation inhibition ratio (A431 cells/TMD8 cells): 2786.0
8.90 | 22.9 | C=CC(=O)N1CCC[C@@H](n2nc(C(=O)Nc3nc4cc(CCOC)ccc4o3)c3c(N)ncnc32)C1 [Example 8, (R)-1-(1-acryloylpiperidin-3-yl)-4-amino-N-(5-(2-methoxyethyl)benzo[d]oxazol-2-yl)-1H-pyrazolo[3,4-d]pyrimidine-3-carboxamide] |  | 
8.67 | 1294.6 | C=C(C)C(=O)N1CCC[C@@H](n2nc(C(=O)Nc3nc4cc(F)ccc4o3)c3c(N)ncnc32)C1 [Example 11, (R)-4-amino-N-(5-fluorobenzo[d]oxazol-2-yl)-1-(1-methacryloylpiperidin-3-yl)-1H-pyrazolo[3,4-d]pyrimidine-3-carboxamide] |  | 
 |  | C=CC(=O)N1CCC[C@@H](n2nc(C(=O)Nc3nc4cc(F)ccc4o3)c3c(N)ncnc32)C1 [Example 12, (R)-1-(1-acryloylpiperidin-3-yl)-4-amino-N-(5-fluorobenzo[d]oxazol-2-yl)-1H-pyrazolo[3,4-d]pyrimidine-3-carboxamide] | 80% | IC50 [2]: 0.18 nM; IC50 (RBL-2H3 cells): 15 nM; Ear swelling control ratio (%) (TNP-IgE mice; 1 mg/kg oral): 64%; ear swellings induced by the allergen application (TNP-IgE mice): suppressed equivalently or strongly ear swellings; Relative body weight change ratio (%) [3]: 91.2%
7.85 | 128.1 | C/C=C/C(=O)N1CCC[C@@H](n2nc(C(=O)Nc3nc4ccccc4o3)c3c(N)ncnc32)C1 [Example 14, (R,E)-4-amino-N-(benzo[d]oxazol-2-yl)-1-(1-(but-2-enoyl)piperidin-3-yl)-1H-pyrazolo[3,4-d]pyrimidine-3-carboxamide] |  | A431 cell proliferation inhibition ratio/TMD8 cell proliferation inhibition ratio (A431 cells/TMD8 cells): >1400.6
9.11 | 147.4 | CN(C)C/C=C/C(=O)N1CCC[C@@H](n2nc(C(=O)Nc3nc4cc(-c5cccs5)ccc4o3)c3c(N)ncnc32)C1 [Example 21, (R,E)-4-amino-N-(5-(thiophen-2-yl)benzo[d]oxazol-2-yl)-1-(1-(4-(dimethylamino)but-2-enoyl)piperidin-3-yl)-1H-pyrazolo[3,4-d]pyrimidine-3-carboxamide] |  | 
9.05 |  | C=CC(=O)N1CC[C@@H](n2nc(C(=O)Nc3nc4cc(OC)ccc4o3)c3c(N)ncnc32)C1 [Example 38, (R)-1-(1-acryloylpyrrolidin-3-yl)-4-amino-N-(5-methoxybenzo[d]oxazol-2-yl)-1H-pyrazolo[3,4-d]pyrimidine-3-carboxamide] |  | 
8.90 |  | C=CC(=O)N1CC(n2nc(C(=O)Nc3nc4cc(Cl)ccc4o3)c3c(N)ncnc32)C1 [Example 45, 1-(1-acryloylazetidin-3-yl)-4-amino-N-(5-chlorobenzo[d]oxazol-2-yl)-1H-pyrazolo[3,4-d]pyrimidine-3-carboxamide] |  | 
8.13 | 20.4 | CN(C)C/C=C/C(=O)N1CC(n2cc(C(=O)Nc3nc4cc(Cl)ccc4o3)c3c(N)ncnc32)C1 [Example 47, (E)-4-amino-N-(5-chlorobenzo[d]oxazol-2-yl)-7-(1-(4-(dimethylamino)but-2-enoyl)azetidin-3-yl) 7H-pyrrolo[2,3-d]pyrimidine-5-carboxamide] |  | 
